≈ marks a conversion by molar mass, not a printed value.
What follows are compounds tested against T1, CsnOU01 (GH family 46 chitosanase) (Microbacterium sp. OU01, UniProt A7KBW5) (assay: equilibrium adsorption to ligand-coupled Sepharose 6B, Scatchard analysis). Conditions: compound immobilised on Sepharose 6B via cyanuric chloride spacer (not the free sugar); Kd in mass concentration of enzyme; 20 mM Tris-HCl, pH 8.0.
T1 construct: about 28 kDa
T1 sequence (A7KBW5 26-266): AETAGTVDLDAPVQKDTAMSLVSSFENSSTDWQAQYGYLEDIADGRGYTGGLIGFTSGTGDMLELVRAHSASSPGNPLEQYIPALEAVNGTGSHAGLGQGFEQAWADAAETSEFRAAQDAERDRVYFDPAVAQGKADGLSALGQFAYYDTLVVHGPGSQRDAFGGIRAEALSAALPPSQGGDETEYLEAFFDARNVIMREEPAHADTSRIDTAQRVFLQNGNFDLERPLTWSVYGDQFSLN
Assay type: binding
Text: equilibrium adsorption to ligand-coupled Sepharose 6B, Scatchard analysis on CsnOU01 (GH family 46 chitosanase)
With chitotrisaccharide [CHTS] the “Kd” value was 20.7 µg/mL.
For `N[C@H]1[C@H](O[C@H]2[C@H](O)[C@@H](N)C(O)O[C@@H]2CO)O[C@H](CO)[C@@H](O)[C@@H]1O` (stereo partly drawn) [CHDS, chitodisaccharide], the “Kd” value was 16.4 µg/mL (≈ 48.2 µM).
For glucosamine, the “Kd” value was 88.5 µg/mL.

— PMC6356299, “Design and Synthesis of a Chitodisaccharide-Based Affinity Resin for Chitosanases Purification” (Marine Drugs, 2019)
